We go through 20 molecules from PubChem BioAssay (NCI).

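These data come from cells grown in 96-well plates and exposed to compound for 48 hours at five concentrations. The concentration for 50% growth inhibition is given as GI50. TGI: concentration producing complete growth inhibition.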

Test systems include DMS 273 small cell lung; KM20L2 colon; XF 498 CNS; LXFL 529 NSCLC; RXF-631 renal; MDA-N; HOP-18 NSCLC; DMS 114 small cell lung; SNB-78 CNS.
Common to all, as to assay: NCI tumour cell line growth inhibition, 48 h

Regarding `C/C=C/C=C/CCCCCCCCCCCCCC1(OC)C=CC(CC(=O)OC)OO1` (stereo unspecified), the TGI in the test on DMS 273 small cell lung stood at 3.03 µM; with KM20L2 colon, 3.51 µM; with XF 498 CNS, 15.8 µM; in the test with LXFL 529 NSCLC it was 16.7 µM; in the test with RXF-631 renal, 29.1 µM. Besides, the GI50 was 1.89 µM in the test on KM20L2 colon, 6.59 µM with XF 498 CNS, 4.7 µM in the test on LXFL 529 NSCLC and 10.8 µM with RXF-631 renal.

In the test with MDA-N, `COC(=O)C(F)C(Br)C(=O)OC` (stereo unspecified) yielded a TGI of 22.7 µM.

As for `CCN(CC)CC(C(=O)Nc1c(C)cccc1C)/C(C)=N\NC(=O)c1ccncc1` (stereo unspecified), the TGI in the test with DMS 273 small cell lung, in the test with HOP-18 NSCLC, with DMS 114 small cell lung, with XF 498 CNS, with LXFL 529 NSCLC and with RXF-631 renal was over 100 µM in each case. In the test with SNB-78 CNS, the TGI is over 100 µM.

`C1CCOC2(CCC3(CC2)OCCCCO3)OC1`: the TGI in the test on DMS 273 small cell lung, with HOP-18 NSCLC, with DMS 114 small cell lung, in the test with KM20L2 colon, with LXFL 529 NSCLC and with SNB-78 CNS was over 100 µM in each case.

Take `C=CC1C(OC2OC(CO)C(O)C(O)C2O)OC=C(C(=O)OC)C1CC=O` (stereo unspecified): the TGI in the test on HOP-18 NSCLC, with KM20L2 colon, in the test on LXFL 529 NSCLC, in the test on RXF-631 renal and in the test on SNB-78 CNS was over 100 µM throughout.

With `CC(C)C12C=CC(C)(CC1)n1c(=O)c3cc4ccccc4cc3c(=O)n12` (stereo unspecified), the TGI in the test on DMS 273 small cell lung, with DMS 114 small cell lung, in the test on KM20L2 colon, with XF 498 CNS, with LXFL 529 NSCLC and in the test on RXF-631 renal was over 100 µM throughout. For the same molecule, the TGI in the test with SNB-78 CNS is over 100 µM.

`CCC(=O)N(O)C(C)(C)C`: the TGI in the test on DMS 114 small cell lung, in the test with KM20L2 colon, with LXFL 529 NSCLC and with SNB-78 CNS was over 100 µM each time.

As for `CS/C(=N\c1nccs1)NC(=O)c1cccc(Cl)c1`, the TGI in the test on DMS 273 small cell lung, with HOP-18 NSCLC, with DMS 114 small cell lung, with KM20L2 colon, in the test with LXFL 529 NSCLC and with RXF-631 renal was over 100 µM in each case. In the test with SNB-78 CNS, the TGI was over 100 µM.

As to `O=C(CCc1cc(-c2ccccc2)nc(=S)[nH]1)Nc1ccccc1[N+](=O)[O-]`, the TGI is over 100 µM in the test on DMS 273 small cell lung; over 100 µM with HOP-18 NSCLC; over 100 µM in the test with DMS 114 small cell lung; over 100 µM with KM20L2 colon; 91.5 µM in the test on XF 498 CNS; over 100 µM with LXFL 529 NSCLC. Further, the TGI in the test with RXF-631 renal and in the test on SNB-78 CNS was over 100 µM throughout.

In the test with MDA-N, `Nc1nc(N)c(N=O)c(OCC2CCCCC2)n1` showed a TGI of 67.4 µM.

Consider `N#Cc1cc([N+](=O)[O-])ccc1NC(=O)/C(=N/N)C(C(=O)c1ccc(Cl)c(Cl)c1)C1OC(=O)c2ccccc21` (stereo unspecified), for which the TGI in the test with DMS 114 small cell lung, in the test on LXFL 529 NSCLC and in the test with SNB-78 CNS was over 100 µM in each case.

For `C=CCNC(=O)NCCCC(NC(C)=O)C(=O)NCc1ccccc1` (stereo unspecified), the TGI in the test on DMS 273 small cell lung, in the test on HOP-18 NSCLC, in the test on KM20L2 colon, with XF 498 CNS, with LXFL 529 NSCLC and with RXF-631 renal was over 100 µM in each case.

Take `COc1cccc2nc3cc(C)c(C)cc3nc12`: the TGI in the test with DMS 273 small cell lung, in the test on HOP-18 NSCLC, with DMS 114 small cell lung, in the test with KM20L2 colon, in the test with XF 498 CNS and in the test on LXFL 529 NSCLC was over 100 µM in each case. Further, the TGI with RXF-631 renal and with SNB-78 CNS was over 100 µM throughout.

As to `c1ccc(CSc2nnc3c4ccccc4c4ccccc4c3n2)cc1`, in the test on MDA-N, the TGI is over 100 µM.

Turning to `CCC1CCc2c(OC)ccc(OCC(=O)O)c2C1=O` (stereo unspecified), the TGI in the test with DMS 273 small cell lung, with DMS 114 small cell lung, in the test with XF 498 CNS, in the test on LXFL 529 NSCLC and with SNB-78 CNS was over 100 µM throughout.

`COC(=O)c1cc(-c2cccn2C)c2c(c1C(=O)OC)c1ccccc1n2C`: the TGI with DMS 273 small cell lung, with HOP-18 NSCLC, with DMS 114 small cell lung, with XF 498 CNS, in the test with LXFL 529 NSCLC and in the test with RXF-631 renal was over 100 µM in each case. In the test with SNB-78 CNS, this molecule showed a TGI of over 100 µM.

Turning to `O=c1[nH]c(-c2ccc(-c3nc4cc([N+](=O)[O-])ccc4c(=O)[nH]3)cc2)nc2cc([N+](=O)[O-])ccc12`, the TGI in the test on DMS 273 small cell lung, in the test on DMS 114 small cell lung, in the test on KM20L2 colon, in the test with LXFL 529 NSCLC, in the test on RXF-631 renal and in the test on SNB-78 CNS was over 100 µM in each case.

Turning to `CCCC(Sc1ccccc1)P(=O)(c1ccccc1)c1ccccc1` (stereo unspecified), the TGI in the test with DMS 273 small cell lung is over 100 µM; with DMS 114 small cell lung, over 100 µM; with KM20L2 colon, over 100 µM; in the test on RXF-631 renal, 94.7 µM; in the test on SNB-78 CNS it was over 100 µM.

For the molecule `C=CCC(OCCOCC)c1cc(OCCOCC)ccc1OC` (stereo unspecified), the TGI with DMS 273 small cell lung, in the test with XF 498 CNS, in the test with LXFL 529 NSCLC and in the test on SNB-78 CNS was over 100 µM throughout.

For `COc1cc(/C=C/C(=O)c2sc(NNC(C)=O)nc2C)ccc1O`, the TGI in the test with DMS 273 small cell lung, with HOP-18 NSCLC, in the test with DMS 114 small cell lung, in the test with KM20L2 colon, with RXF-631 renal and in the test on SNB-78 CNS was over 100 µM each time.
